Columns and labels:
Type in all cases: physicochemical
[1] = Storage stability under atmospheric conditions at 60-70° C. (by-products, HPLC purity)
Text: The compounds according to the invention and their hydrates can be used for the treatment and prevention of all disorders, which can be treated or prevented by using PPI. In particular, the compounds according to the invention and their hydrates can be used for treating gastric disorders. In this context particular mention should be made of the relatively high stability of compounds according to the invention and their hydrates. […] This relatively high storage stability makes the compounds according to the invention and their hydrates particularly suitable for use in medicaments.

[2] = Storage stability at 70° C. for one week (discolouration, decomposition); settings: for stability, discolouration and decomposition on storage: 70° C., one week, identical conditions for both salts
[3] = Dissolution compared with racemic pantoprazole magnesium dihydrate

Row | purity (according to HPLC) before storage ([1]; start value) | purity (according to HPLC) after storage ([1]; storage under atmospheric conditions at 60-70° C.) | stability properties / stable storage form (general statement) ([2]; compared to the sodium salt of (−)-pantoprazole) | sum of by-products on storage ([1]; storage under atmospheric conditions, 60-70° C.) | SMILES | stability, discolouration and decomposition on storage [2] | dissolution [3]
1 | 99.5% | 96-97% | does not form a stable storage form | – | COc1ccnc(C[S+]([O-])c2nc3cc(OC(F)F)ccc3[n-]2)c1OC.[Na+] (single isomer, unassigned; (-)) [(−)-pantoprazole sodium] | changes to brown, with formation of considerable amounts of decomposition products | –
2 | – | – | – | remains virtually constant | COc1ccnc(C[S+]([O-])c2nc3cc(OC(F)F)ccc3[n-]2)c1OC.O.[Mg+2].[OH-] (stereo not drawn) [Example 2, Magnesium (−)-{[5-(difluoromethoxy)]-2-[(3,4-dimethoxy-2-pyridinyl)methylsulphinyl]-1H-benzimidazolide}hydroxy monohydrate] | completely stable for one week and shows virtually no discolouration or decomposition | faster dissolution than the racemic pantoprazole magnesium dihydrate

Source: US20060189590A1, “Alkaline salts of proton pump inhibitors” (priority 2003, published 2006)
